pIC50: −log10 of the molar value.
Biological target: T1, c-Met kinase (histidine-tagged c-Met catalytic domain fusion protein) (Homo sapiens, UniProt P08581)
T1 construct: histidine-tagged c-Met catalytic domain fusion protein (Invitrogen, #PV3143) was used for the assay; histidine tag; purchased Invitrogen PV3143
Assay: In vitro c-Met kinase enzyme assay
Format: biochemical
Conditions: poly Glu-Tyr phosphorylation, 5 μM ATP, 25 minutes at 30° C.; read-out: IC50 for the inhibition of c-Met kinase
Method: Compounds were screened in vitro for their ability to inhibit c-Met kinase activity. The IC50 values of compounds for the inhibition of c-Met kinase were determined as described in the literature with some modifications (Wang, X. et al, Mol. Cancer. Ther. 2003, 2(11):1085-1092; Calic, M. et al., Croatica Chemical ACTA. 2005, 78(3):367-374). Briefly, histidine-tagged c-Met catalytic domain fusion protein (Invitrogen, #PV3143) was used for the assay. IC50 measurements were based on the degree of phosphorylation of poly Glu-Tyr (Sigma-Aldrich, #PO275) that was coated (0.01 mg/per well) on 96-well microplates (R&D systems, #DY990). The reaction was carried out in a 50 μL solution containing 50 mM HEPES (pH 7.5), 10 mM MnCl2, 10 mM MgCl2, 0.5 mM DTT, 100 μM Na3VO4, 5 μM ATP (Cell Signaling Technology, #9804) and serial dilutions of individual compounds. The reaction lasted for 25 minutes at 30° C. After the reaction was completed, the contents of the plates was discarded. […] The optical density was measured immediately using a microplate reader at 450 nm with wavelength correction at 540 nm. IC50 values were calculated with the GraphPad Prism software. The linear range (i.e., the time period over which the rate remained equivalent to the initial rate) was determined for the kinase and IC50 determinations were performed within this range. […]

T1 sequence (P08581 1078-1345 limits assumed): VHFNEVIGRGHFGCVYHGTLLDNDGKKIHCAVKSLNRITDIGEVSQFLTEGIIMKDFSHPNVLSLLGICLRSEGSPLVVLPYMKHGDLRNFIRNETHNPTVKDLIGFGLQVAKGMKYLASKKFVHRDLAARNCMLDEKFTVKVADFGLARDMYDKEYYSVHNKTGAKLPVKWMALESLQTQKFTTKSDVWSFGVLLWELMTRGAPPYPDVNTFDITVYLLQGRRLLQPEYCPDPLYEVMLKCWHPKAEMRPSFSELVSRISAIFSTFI

pIC50: 7.89
SMILES: COc1ccc(C2(c3nnc4ncc(-c5ccccc5)nn34)CC2)cc1 [Example 26, 3-[1-(4-Methoxyphenyl)cyclopropyl]-6-phenyl[1,2,4]triazolo[4,3-b][1,2,4]triazine]

Reference: patent publication US8143251B2, “Triazolotriazines as kinase inhibitors” (Incyte Corporation, priority 2006, dated 2012)
